Assay results from patent US20130072506A1, “6,8-DISUBSTITUTED PURINE COMPOSITIONS” (priority 2011, published 2013).
Each block holds one compound with its values, some of them ahead of it.

Assays:
[1] = system: osteosarcoma cell line HOS; test: In vitro cytotoxic activity (metabolisation of Calcein AM); format: cell-based, human; conditions: HOS cells, 72 hours incubation, called GI50, read-out: Cell line tested/IC50 (μmol/L) HOS
From the text: (§1) In vitro Cytotoxic Activity (Metabolisation of Calcein AM). Because toxic compounds negatively influence metabolic processes of cells, many standard cytotoxicity assays are based on measurement of metabolisation rate of various artificial substrates. Resulting product is then quantified, for example, by means of spectrometry. The assays can be easily modified for use in 96-well plates. For evaluation of cytotoxicity of the 6,8-disubstituted purines of this invention, a microtiter assay based on quantification of metabolisation of Calcein AM was used. The assay is widely used in drug screening programs and in chemosensitivity testing. In live cells, Calcein AM is enzymatically hydrolysed and accumulation of resulting calcein is manifested by green fluorescence.
(§2) The following human cell lines were used for routine screening of the compounds: normal diploid fibroblasts BJ, T-lymphoblastic leukemia cell line CEM, promyelocytic leukemia cell line HL-60, erytroid leukemia cell line K-562, breast carcinoma cell line MCF-7, osteosarcoma cell line HOS and melanoma cell line G-361. The cells were maintained in Nunc/Corning 80 cm^2 plastic tissue culture flasks and cultured in cell culture medium (DMEM with 5 g/l glucose, 2 mM glutamine, […] penicillin, 100 mmg/ml streptomycin, 10% fetal calf serum and sodium bicarbonate).
(§3) The cell suspensions were prepared and diluted according to the particular cell type and the expected target cell density (2.500-30.000 cells per well based on cell growth characteristics) and pipetted (80 μl) into 96-well plates. Inoculates were allowed a pre-incubation period of 24 hours at 37° C. and 5% CO2 for stabilization. Tested compound was added in total volume of […] of water at time zero. Usually, test compound was evaluated at six 3-fold dilutions. In routine testing, the highest concentration tested was 100 μM, but it could have been adjusted because of limited solubility of a compound. All drug concentrations were tested in triplicates.
(§4) Incubations of cells with the test compounds lasted for 72 hours at 37° C., in 5% CO2 atmosphere and 100% humidity. At the end of incubation period Calcein AM in PBS was added into final concentration of 1 μg/ml. After another 1 hour of incubation fluorescence (FD) was measured with the Labsystem FIA Reader Fluoroscan Ascent (UK). Growth inhibition (GI) was estimated using the following equitation: GI=(mean FDdrug exposed wells−mean FDblank)/(mean FDcontrol wells−mean FDblank)×100%. The GI50 value, the drug concentration causing 50% reduction of Calcein AM conversion, was calculated from the obtained dose response curves.

[2] = system: breast carcinoma cell line MCF-7; test: as above; format: cell-based, human; conditions: MCF7 cells, 72 hours incubation, called GI50, read-out: Cell line tested/IC50 (μmol/L) MCF7
From the text: as §1, §2, §3, §4

melanoma cell line G-361 = test: as above; format: cell-based, human; conditions: G-361 cells, 72 hours incubation, called GI50, read-out: Cell line tested/IC50 (μmol/L) G-361
From the text: as §1, §2, §3, §4

[3] = system: T-lymphoblastic leukemia cell line CEM; test: as above; format: cell-based, human; conditions: CEM cells, 72 hours incubation, called GI50, read-out: Cell line tested/IC50 (μmol/L) CEM
From the text: as §1, §2, §3, §4

[4] = system: erytroid leukemia cell line K-562; test: as above; format: cell-based, human; conditions: K-562 cells, 72 hours incubation, called GI50, read-out: Cell line tested/IC50 (μmol/L) K-562
From the text: as §1, §2, §3, §4

[5] = system: normal diploid fibroblasts BJ; test: as above; format: cell-based, human; conditions: BJ cells, 72 hours incubation, called GI50, read-out: Cell line tested/IC50 (μmol/L) BJ
From the text: as §1, §2, §3, §4

[6] = system: Human diploid fibroblast BJ; test: In vitro cytotoxic activity (metabolisation of MTT); format: cell-based; conditions: 72 hours, BJ passage 18-22
Description: In vitro Cytotoxic Activity (metabolisation of Mtt). MTT ([…]) assay is a standard colorimetric assay for evaluation of cytotoxicity. Mitochondrial dehydrogenase activity converts yellow MTT into violet formazan which is measured by means of spectrometry.
Human diploid fibroblast BJ (passage 18-22) were seeded into 96-well plate (5.000 cells per well). After 6 hours cultivation medium (DMEM with 5 g/l glucose, 2 mM glutamine, 100 U/ml penicillin, 100 mmg/ml streptomycin, 10% fetal calf serum and sodium bicarbonate) was replaced with the cultivation medium containing test compounds in concentration range of 0-200 μM. Highest concentration was adjusted if the solubility of the compound was limiting. Every concentration was tested in pentaplicate. MTT was added to the cells after 72 hours incubation (final concentration 0.5 mg/ml) and incubation continued for another 3 hours. MTT was solubilised by DMSO and absorbance at 570 nm was measured. Growth inhibition (GI) was estimated using the following equitation: GI=(mean A drug exposed wells−mean Ablank/mean Acontrol wells−mean Ablank)×100%. The GI20 value, the drug concentration causing 20% decrease in mitochondrial dehydrogenase activity, was calculated from the obtained dose response curves.

Compound: Nc1nc2ncnc(NCc3cccc([N+](=O)[O-])c3)c2[nH]1 [Compound 100]
IC50 [1]: > 50 µmol/L
IC50 [2]: > 50 µmol/L
IC50 (melanoma cell line G-361): > 50 µmol/L
IC50 [3]: > 50 µmol/L
IC50 [4]: > 50 µmol/L
IC50 [5]: > 50 µmol/L
GI20 [6]: >100 µM

Compound: Nc1nc2ncnc(NCc3ccc(Cl)c(Cl)c3)c2[nH]1 [Compound 101]
IC50 [1]: > 50 µmol/L
IC50 [2]: > 50 µmol/L
IC50 (melanoma cell line G-361): > 50 µmol/L
IC50 [3]: > 50 µmol/L
IC50 [4]: > 50 µmol/L
IC50 [5]: > 50 µmol/L
GI20 [6]: >100 µM

Compound: Nc1nc2ncnc(NCc3cccc(O)c3O)c2[nH]1 [Compound 102]
IC50 [1]: > 50 µmol/L
IC50 [2]: > 50 µmol/L
IC50 (melanoma cell line G-361): > 50 µmol/L
IC50 [3]: > 50 µmol/L
IC50 [4]: > 50 µmol/L
IC50 [5]: > 50 µmol/L
GI20 [6]: >100 µM

Compound: Nc1nc2ncnc(NCc3ccc(O)c(O)c3)c2[nH]1 [Compound 103]
IC50 [1]: > 50 µmol/L
IC50 [2]: > 50 µmol/L
IC50 (melanoma cell line G-361): > 50 µmol/L
IC50 [3]: > 50 µmol/L
IC50 [4]: > 50 µmol/L
IC50 [5]: > 50 µmol/L
GI20 [6]: >100 µM

Compound: COc1cccc(CNc2ncnc3nc(N)[nH]c23)c1O [Compound 104]
IC50 [1]: > 50 µmol/L
IC50 [2]: > 50 µmol/L
IC50 (melanoma cell line G-361): > 50 µmol/L
IC50 [3]: > 50 µmol/L
IC50 [4]: > 50 µmol/L
IC50 [5]: > 50 µmol/L
GI20 [6]: >100 µM

Compound: COc1ccc(CNc2ncnc3nc(N)[nH]c23)cc1O [Compound 105]
IC50 [1]: > 50 µmol/L
IC50 [2]: > 50 µmol/L
IC50 (melanoma cell line G-361): > 50 µmol/L
IC50 [3]: > 50 µmol/L
IC50 [4]: > 50 µmol/L
IC50 [5]: > 50 µmol/L
GI20 [6]: >100 µM

Compound: Nc1nc2ncnc(Nc3ccccc3O)c2[nH]1 [Compound 114]
IC50 [1]: > 50 µmol/L
IC50 [2]: > 50 µmol/L
IC50 (melanoma cell line G-361): > 50 µmol/L
IC50 [3]: > 50 µmol/L
IC50 [4]: > 50 µmol/L
IC50 [5]: > 50 µmol/L
GI20 [6]: >100 µM

Compound: Nc1nc2ncnc(Nc3cccc(O)c3)c2[nH]1 [Compound 115]
IC50 [1]: > 50 µmol/L
IC50 [2]: > 50 µmol/L
IC50 (melanoma cell line G-361): > 50 µmol/L
IC50 [3]: > 50 µmol/L
IC50 [4]: > 50 µmol/L
IC50 [5]: > 50 µmol/L
GI20 [6]: >100 µM

melting point: 205 to 210 °C
Compound: COc1nc2ncnc(NCC=C(C)C)c2[nH]1 [Compound 123, 8-Methoxy-6-(3-methylbut-2-en-1-ylamino)purine]

melting point: 96 to 99 °C
Compound: CSc1nc2ncnc(NCC=C(C)C)c2[nH]1 [Compound 149, 6-(3-Methylbut-2-en-1-ylamino)-8-methylsulphanylpurine]

melting point: 210 to 213 °C
Compound: N#Cc1nc2ncnc(NCc3ccccc3)c2[nH]1 [Compound 174, 6-Benzylamino-8-cyanopurine]

Compound: CC(=CCNc1ncnc2nc(NCCCN)[nH]c12)CO [Compound 210]
IC50 [1]: > 50 µmol/L
IC50 [2]: > 50 µmol/L
IC50 (melanoma cell line G-361): > 50 µmol/L
IC50 [3]: > 50 µmol/L
IC50 [4]: > 50 µmol/L
IC50 [5]: > 50 µmol/L
GI20 [6]: >100 µM

Compound: CC(C)=CCNc1ncnc2nc(NCCCN)[nH]c12 [Compound 211]
IC50 [1]: > 50 µmol/L
IC50 [2]: > 50 µmol/L
IC50 (melanoma cell line G-361): > 50 µmol/L
IC50 [3]: > 50 µmol/L
IC50 [4]: > 50 µmol/L
IC50 [5]: > 50 µmol/L
GI20 [6]: >100 µM
